Data published in the NIST ThermoML archive (doi:10.1007/s10765-008-0491-0).

Experiment: xn = mol fraction of the nth substance listed
Conditions: 101 kPa, Liquid; for speed of sound: Sing-around technique in a fixed-path interferometer; for mass density: Vibrating tube method; for viscosity: Capillary tube (Ostwald / Ubbelohde) method

CC(C)CCCC(C)CCCC(C)CCCCC(C)CCCC(C)CCCC(C)C (stereo not drawn) [2,6,10,15,19,23-hexamethyltetracosane] + CCCCCCCCO
Conditions	mass density, 293.15 K [kg/m3]	mass density, 303.15 K [kg/m3]	mass density, 308.15 K [kg/m3]	speed of sound, 293.15 K [m/s]	speed of sound, 303.15 K [m/s]	speed of sound, 308.15 K [m/s]	viscosity, 298.15 K [mPa·s]	viscosity, 303.15 K [mPa·s]	viscosity, 308.15 K [mPa·s]
x2 = 0	805.122	801.912	798.709	1381.9	1364.1	1346.5	28.26	22.09	17.77
x2 = 0.0596	805.175	801.944	798.711	1379.9	1362.1	1344.1	24.18	19.21	15.49
x2 = 0.1053	805.299	802.053	798.798	1378.5	1360.4	1343.1	21.92	17.59	14.21
x2 = 0.1563	805.499	802.234	798.947	1376.9	1359.3	1341.5	20.12	16.25	13.14
x2 = 0.2092	805.773	802.479	799.184	1375.7	1357.8	1340.2	18.81	15.26	12.34
x2 = 0.2648	806.107	802.799	799.487	1374.2	1356.4	1338.7	17.88	14.5	11.73
x2 = 0.3404	806.637	803.312	799.989	1372.4	1354.5	1336.8	16.97	13.74	11.13
x2 = 0.398	807.105	803.775	800.439	1370.8	1352.9	1335.3	16.38	13.24	10.72
x2 = 0.4799	807.875	804.507	801.188	1368.6	1350.7	1333.1	15.42	12.45	10.12
x2 = 0.5974	809.279	805.92	802.536	1364.9	1347.1	1329.5	13.55	11.01	9.007
x2 = 0.6988	810.937	807.538	804.116	1361.3	1343.7	1326.1	11.51	9.441	7.786
x2 = 0.8079	813.477	810.008	806.567	1356.9	1339.5	1322.1	9.294	7.693	6.416
x2 = 0.8519	814.812	811.352	807.925	1355.2	1337.8	1320.4	8.533	7.093	5.937
x2 = 0.8942	816.384	812.92	809.463	1353.2	1335.9	1318.7	7.963	6.624	5.572
x2 = 0.9474	818.773	815.429	811.955	1350.6	1333.5	1316.4	7.526	6.288	5.31

CCCCCCCCCCCCCCCC [hexadecane] + CCCCCCCCO
Conditions	mass density, 293.15 K [kg/m3]	mass density, 303.15 K [kg/m3]	mass density, 308.15 K [kg/m3]	speed of sound, 293.15 K [m/s]	speed of sound, 303.15 K [m/s]	speed of sound, 308.15 K [m/s]	viscosity, 298.15 K [mPa·s]	viscosity, 303.15 K [mPa·s]	viscosity, 308.15 K [mPa·s]
x2 = 0	770.456	766.981	763.52	1338.6	1320	1301.7	3.041	2.706	2.409
x2 = 0.0461	771.581	768.09	764.586	1337	1318.4	1299.9	3.073	2.748	2.402
x2 = 0.1039	773.103	769.605	766.078	1335.7	1317.1	1298.7	3.089	2.741	2.399
x2 = 0.1547	774.574	771.039	767.495	1334.7	1316.1	1297.7	3.096	2.728	2.406
x2 = 0.1944	775.766	772.218	768.68	1334.3	1315.8	1297.4	3.107	2.728	2.419
x2 = 0.2685	778.197	774.63	771.077	1333.7	1315.3	1296.9	3.175	2.773	2.473
x2 = 0.3383	780.693	777.145	773.575	1333.5	1315.1	1296.8	3.29	2.881	2.561
x2 = 0.4099	783.479	779.937	776.383	1333.3	1314.9	1296.8	3.472	3.041	2.688
x2 = 0.4981	787.31	783.781	780.228	1333.5	1315.3	1297.2	3.768	3.307	2.896
x2 = 0.6017	792.441	788.911	785.346	1334.2	1316.2	1298.4	4.223	3.681	3.218
x2 = 0.6927	797.621	794.075	790.488	1335.8	1317.9	1300.2	4.714	4.086	3.554
x2 = 0.7963	804.426	800.846	797.284	1338.5	1320.9	1303.4	5.384	4.663	4.008
x2 = 0.8445	808.003	804.438	800.882	1340.1	1322.6	1305.3	5.757	4.992	4.251
x2 = 0.895	812.077	808.561	805.017	1342.2	1324.9	1307.8	6.219	5.383	4.54
x2 = 0.9529	817.221	813.871	810.331	1344.9	1327.9	1310.9	6.86	5.883	4.944

CCCCCCCCO [octan-1-ol] + CC(C)CCCC(C)CCCC(C)CCCCC(C)CCCC(C)CCCC(C)C
x1 = 1
Conditions	mass density [kg/m3]	speed of sound [m/s]	viscosity [mPa·s]
293.15 K	821.813	1348	–
298.15 K	–	–	7.506
303.15 K	818.796	1330.8	6.344
308.15 K	815.286	1314.1	5.363

CCCCCCCCO [octan-1-ol] + CCCCCCCCCCCCCCCC
x1 = 1
Conditions	mass density [kg/m3]	speed of sound [m/s]	viscosity [mPa·s]
293.15 K	821.813	1348	–
298.15 K	–	–	7.508
303.15 K	818.796	1330.8	6.344
308.15 K	815.286	1314.1	5.363
